≈ marks a conversion by molar mass, not a printed value. Read-outs that look alike come from different tables or passages of the source.
How the values were obtained:
S. aureus ATCC 29213 = assay: Broth microdilution MIC with arithmetic drug dilutions; type: cell-based, Staphylococcus aureus; settings: for MIC: Staphylococcus aureus, ATCC29213, mean
Experimental: (§1) Pooled sera from humans, mice and rats were obtained from Equitech-Bio (Kerrville, Tex.); pooled serum from beagle dogs was from Bioreclamation (Liverpool, N.Y.). ULTRA was prepared using Centricon Plus-50 ultrafilters (Millipore, Billerica, Mass.), whose molecular weight cutoff (50 kDa) excludes albumin. ORI stock solutions were prepared following CLSI M100-818 (Clinical and Laboratory Standards Institute. 2008. CLSI document M100-S18). Staphylococcus aureus ATCC 29213 was used as the test isolate at a final inoculum of ˜5×10^5 CFU/mL in both MIC and AUIC studies.
(§2) Arithmetic MICs: Broth microdilution MIC assays with Staphylococcus aureus ATCC 29213 were based on CLSI guidelines (Clinical and Laboratory Standards Institute, 2009, CLSI document M7-A7). Growth media were 95% serum:5% CAMHB and 95% serum ultrafiltrate:5% CAMHB. Arithmetic dilutions of oritavancin and comparators were used to increase precision of minimum inhibitory concentration (MIC) values relative to doubling dilutions. Percent binding in serum was calculated as follows: % Bound=(1−[mean MICultrafiltrate/mean MICserum]×100%

human serum protein = assay: Serum protein binding estimated from MIC shift, serum vs serum ultrafiltrate (human); type: in vitro ADME; settings: from mean MICs, broth microdilution, this study
Source text: (§3) Avid binding of oritavancin (ORI) to filtration and dialysis membranes renders most protein binding methodologies unsuitable. To control for any impact of serum components on bacterial growth and antibiotic activity, MIC shifts (from arithmetic drug dilutions) and area under the inhibitory curve (AUIC) shifts (from time-kill assays) were quantified in the presence of serum (SER) compared to SER ultrafiltrate (ULTRA; free of albumin) to estimate ORI binding to serum. In this manner, the extent of reduction in oritavancin activity in serum was related to its degree of serum protein binding. The method was benchmarked using daptomycin and ceftriaxone (Lee et al., Antimicrob Agents Chemother. 35:2505-2508 (1991); Schmidt et al., Antimicrob Agents Chemother. 52:3994-4000 (2008); Yuk et al., Clin Pharmacokinet. 17:223-235 (1989); McKay et al., Evaluation of oritavancin activity in vitro in the presence of human and mouse serum, abstr P1854. Abstr. 19th European Congress of Clinical Microbiology and Infectious Diseases. European Society of Clinical Microbiology and Infectious Diseases, Basel, Switzerland, May 16, 2009).
as §1
as §2, with “Arithmetic dilutions of oritavancin and comparators were used to increase precision of minimum inhibitory concentration (MIC) values relative to doubling dilutions.” left out

[1] = Serum protein binding estimated from MIC shift, serum vs serum ultrafiltrate (mouse); type: in vitro ADME; settings: pooled mouse serum compared with serum ultrafiltrate; mouse serum; from mean MICs, broth microdilution; this study; read-out: % Bound (protein binding estimate) (converted)
Source text: as §3, §1
as §2, with “Arithmetic dilutions of oritavancin and comparators were used to increase precision of minimum inhibitory concentration (MIC) values relative to doubling dilutions.” left out

rat serum protein = assay: Serum protein binding estimated from MIC shift, serum vs serum ultrafiltrate (rat); type: in vitro ADME; settings: from mean MICs, broth microdilution, this study
Source text: as §3, §1
as §2, with “Arithmetic dilutions of oritavancin and comparators were used to increase precision of minimum inhibitory concentration (MIC) values relative to doubling dilutions.” left out

beagle dog serum protein = assay: Serum protein binding estimated from MIC shift, serum vs serum ultrafiltrate (dog); type: in vitro ADME; settings: from mean MICs, broth microdilution, this study
Source text: as §3, §1
as §2, with “Arithmetic dilutions of oritavancin and comparators were used to increase precision of minimum inhibitory concentration (MIC) values relative to doubling dilutions.” left out

[2] = Serum protein binding from MIC shift, summary across species; type: in vitro ADME, human, mouse, rat, dog; settings: pooled serum compared with serum ultrafiltrate; serum from mouse, rat, and beagle dog; MIC shift; read-out: Serum protein binding estimates, range
Source text: as §3, §1
as §2, with “Arithmetic dilutions of oritavancin and comparators were used to increase precision of minimum inhibitory concentration (MIC) values relative to doubling dilutions.” left out

human serum = settings: cited from earlier work
mouse serum protein = assay: Serum protein binding estimated from MIC shift, serum vs serum ultrafiltrate (mouse); type: in vitro ADME; settings: mouse, serum
Source text: as §3, §1
as §2, with “Arithmetic dilutions of oritavancin and comparators were used to increase precision of minimum inhibitory concentration (MIC) values relative to doubling dilutions.” left out

plasma protein = settings: across tested species; Shaw et al. 2008; cited from earlier work
[3] = 95% dog serum + 5% CAMHB, read-out: MIC, Serum
[4] = 95% dog serum ultrafiltrate + 5% CAMHB, read-out: MIC, Ultrafiltrate
[5] = 95% human serum + 5% CAMHB, read-out: MIC, Serum
[6] = 95% human serum ultrafiltrate + 5% CAMHB, read-out: MIC, Ultrafiltrate
[7] = 95% mouse serum + 5% CAMHB, read-out: MIC, Serum
[8] = 95% mouse serum ultrafiltrate + 5% CAMHB, read-out: MIC, Ultrafiltrate
[9] = 95% rat serum + 5% CAMHB, read-out: MIC, Serum
[10] = 95% rat serum ultrafiltrate + 5% CAMHB, read-out: MIC, Ultrafiltrate
[11] = cation-adjusted Mueller-Hinton broth, CLSI conditions, Dog, read-out: MIC, CAMHB
[12] = cation-adjusted Mueller-Hinton broth, CLSI conditions, Human, read-out: MIC, CAMHB
[13] = cation-adjusted Mueller-Hinton broth, CLSI conditions, Mouse, read-out: MIC, CAMHB
[14] = cation-adjusted Mueller-Hinton broth, CLSI conditions, Rat, read-out: MIC, CAMHB
[15] = mean MIC in 95% dog serum / mean MIC in 95% dog serum ultrafiltrate
[16] = mean MIC in 95% human serum / mean MIC in 95% human serum ultrafiltrate
[17] = mean MIC in 95% mouse serum / mean MIC in 95% mouse serum ultrafiltrate
[18] = mean MIC in 95% rat serum / mean MIC in 95% rat serum ultrafiltrate

**Q.** Which MIC (S. aureus ATCC 29213; [3]) does the source give for `CO/N=C(\C(=O)N[C@@H]1C(=O)N2C(C(=O)O)=C(CSc3nc(=O)c(=O)[nH]n3C)CS[C@H]12)c1csc(N)n1` [Ceftriaxone] here?
**A.** 1.38 µg/mL

**Q.** What about the MIC (S. aureus ATCC 29213; [4]) of the same compound?
**A.** 1.09 µg/mL

**Q.** What about the MIC (S. aureus ATCC 29213; [5]) of the same compound?
**A.** 38.8 µg/mL

**Q.** What about the MIC (S. aureus ATCC 29213; [6]) of the same compound?
**A.** 2.88 µg/mL

**Q.** What about the MIC (S. aureus ATCC 29213; [7]) of the same compound?
**A.** 6 µg/mL

**Q.** And the MIC (S. aureus ATCC 29213; [8])?
**A.** 3.75 µg/mL

**Q.** And the MIC (S. aureus ATCC 29213; [9])?
**A.** 5.88 µg/mL

**Q.** What about the MIC (S. aureus ATCC 29213; [10]) of the same compound?
**A.** 3.88 µg/mL

**Q.** And the MIC (S. aureus ATCC 29213; [11])?
**A.** 5.25 µg/mL (≈ 9.47 µM)

**Q.** What about the MIC (S. aureus ATCC 29213; [12]) of the same compound?
**A.** 4.88 µg/mL (≈ 8.8 µM)

**Q.** What about the MIC (S. aureus ATCC 29213; [13]) of the same compound?
**A.** 5 µg/mL (≈ 9.02 µM)

**Q.** And the MIC (S. aureus ATCC 29213; [14])?
**A.** 3.5 µg/mL (≈ 6.31 µM)

**Q.** And the “Mean Fold MIC Increase” value (S. aureus ATCC 29213; [15])?
**A.** 1.3 fold

**Q.** And the “Mean Fold MIC Increase” value (S. aureus ATCC 29213; [16])?
**A.** 13.5 fold

**Q.** And the “Mean Fold MIC Increase” value (S. aureus ATCC 29213; [17])?
**A.** 1.6 fold

**Q.** What about the “Mean Fold MIC Increase” value (S. aureus ATCC 29213; [18]) of the same compound?
**A.** 1.5 fold

**Q.** What about the “% Bound (protein binding estimate)” value (human serum protein) of the same compound?
**A.** 92.6%

**Q.** What about the fraction unbound [1] of the same compound?
**A.** 0.625

**Q.** What about the “% Bound (protein binding estimate)” value (rat serum protein) of the same compound?
**A.** 34.0%

**Q.** And the “% Bound (protein binding estimate)” value (beagle dog serum protein)?
**A.** 20.9%

**Q.** And the fraction unbound [2]?
**A.** 0.625 to 0.791

**Q.** And the “Binding estimate from in vitro microdialysis” value (human serum)?
**A.** 76.8%

**Q.** What does the source list for `CCCCCCCCCC(=O)N[C@@H](Cc1c[nH]c2ccccc12)C(=O)N[C@H](CC(N)=O)C(=O)N[C@@H](CC(=O)O)C(=O)N[C@@H]1C(=O)NCC(=O)N[C@@H](CCCN)C(=O)N[C@@H](CC(=O)O)C(=O)N[C@H](C)C(=O)N[C@@H](CC(=O)O)C(=O)NCC(=O)N[C@H](CO)C(=O)N[C@@H]([C@H](C)CC(=O)O)C(=O)N[C@@H](CC(=O)c2ccccc2N)C(=O)O[C@@H]1C` [Daptomycin]?
**A.** MIC (S. aureus ATCC 29213; [3]): 2.5 µg/mL; MIC (S. aureus ATCC 29213; [4]): 0.638 µg/mL; MIC (S. aureus ATCC 29213; [5]): 3 µg/mL; MIC (S. aureus ATCC 29213; [6]): 0.513 µg/mL; MIC (S. aureus ATCC 29213; [7]): 12.5 µg/mL; MIC (S. aureus ATCC 29213; [8]): 3 µg/mL; MIC (S. aureus ATCC 29213; [9]): 1.56 µg/mL; MIC (S. aureus ATCC 29213; [10]): 0.538 µg/mL; MIC (S. aureus ATCC 29213; [11]): 1 µg/mL (≈ 0.617 µM); MIC (S. aureus ATCC 29213; [12]): 0.975 µg/mL (≈ 0.602 µM); MIC (S. aureus ATCC 29213; [13]): 0.975 µg/mL (≈ 0.602 µM); MIC (S. aureus ATCC 29213; [14]): 1.25 µg/mL (≈ 0.771 µM); Mean Fold MIC Increase (S. aureus ATCC 29213; [15]): 3.9 fold; Mean Fold MIC Increase (S. aureus ATCC 29213; [16]): 5.8 fold; Mean Fold MIC Increase (S. aureus ATCC 29213; [17]): 4.2 fold; Mean Fold MIC Increase (S. aureus ATCC 29213; [18]): 2.9 fold; % Bound (protein binding estimate) (human serum protein): 82.9%; % Bound (protein binding estimate) (mouse serum protein): 76.0%; % Bound (protein binding estimate) (rat serum protein): 65.6%; % Bound (protein binding estimate) (beagle dog serum protein): 74.5%

**Q.** For `CCCCCCCCCCNCCN[C@@]1(C)C[C@H](O[C@H]2[C@H](Oc3c4cc5cc3Oc3ccc(cc3Cl)[C@@H](O)[C@@H](NC(=O)[C@@H](CC(C)C)NC)C(=O)N[C@@H](CC(N)=O)C(=O)N[C@H]5C(=O)N[C@H]3C(=O)N[C@H](C(=O)N[C@H](C(=O)O)c5cc(O)c(CNCP(=O)(O)O)c(O)c5-c5cc3ccc5O)[C@H](O)c3ccc(c(Cl)c3)O4)O[C@H](CO)[C@@H](O)[C@@H]2O)O[C@@H](C)[C@H]1O` [telavancin], which Plasma protein binding (plasma protein) is on record?
**A.** approximately 90%
